Data taken from paper PMC9692552, “Activity and Synergy of Cu-ATCUN Antimicrobial Peptides” (International Journal of Molecular Sciences, 2022).
≈ marks a conversion by molar mass, not a printed value. Where “and” joins values, the source holds several entries; their conditions need not be identical. Equal entries are not always repeated. Where two headings read alike, the source gives them in different places. Ends that are not written are not given here. Peptide text beside a SMILES is read from it.

Legend:
E. coli 25922 [1] = type: cell-based, Escherichia coli
Procedure: (§1) The minimum inhibitory concentration of a peptide is the concentration at which no observable bacterial growth can be determined by visual inspection. MIC values are useful for determining the potential of a test article as a therapeutic, as well as in comparison to other test articles. A variety of antimicrobial peptides were tested for activity against an array of clinically relevant bacterial strains. The sequences of SMAP-29 derivatives and their key features can be seen in Table 1, with peptides being named in reference to how they were originally published. Peptides OV3-00 and OV3-01 were utilized in this study. Because the template (or parental) peptide, SMAP-29, derived from sheep leukocytes, is hemolytic to human red blood cells, efforts were made to enhance the therapeutic index of the peptide leading to the creation of OV and OV3 [14, 19]. Various derivatives were made and OV3 came to represent two distinct peptides in the literature: the peptide labeled OV3 and a peptide with an additional c-terminal YG, herein labeled OV3-00. Previous work in our laboratory utilized OV3 for the design and synthesis of ATCUN domain peptides, but it lacks a tryptophan or tyrosine residue that allows for more ready quantification of the peptide concentration by the extinction coefficient, leading to a less accurate, more difficult, concentration analysis by mass spectrometry. To ease quantification and facilitate studies on the OV3 series in our laboratory, and compare the effect of the added YG, additional work was pursued using the longer OV3-00 and OV3-01 derivatives.
(§2) Minimum inhibitory concentrations (MICs) of test molecules were established by broth dilution assays. Mid-log phase bacterial cultures of a variety of clinically important organisms were diluted and incubated with a serial dilution of each peptide, starting at 128 µM. The concentration of peptide at which no visible growth occurred was marked as the MIC. Bacterial strains were incubated in Mueller–Hinton Broth (MHB) at 37 degrees Celsius until the OD600 reached between 0.8 and 1. The resulting culture was subsequently diluted 100× into 96-well plates with the test articles. Positive and negative controls containing only MHB incubated with bacteria and MHB, respectively, were also included on the plate. Each 96-well plate was incubated for 16–20 h, and the MIC was determined by visual inspection. To determine the colony-forming units (CFUs) present in each assay, 100 µL of the 100× diluted culture was further diluted by 1000× and plated on agar plates and determined by use of Equation (1). The colonies were counted to ensure that the CFU value was between 10^4 and 10^5. CFU/mL = (mean # of colonies/0.1 mL) (1000 (dilution factor))(1)

S. aureus 43300 (MRSA) = type: cell-based
Procedure: as §1, §2

K. pneumoniae 700603 = type: cell-based
Procedure: as §1, §2

P. aeruginosa 27583 = type: cell-based
Procedure: as §1, §2

E. faecium 700221 (VRE) = type: cell-based
Procedure: as §1, §2

A. baumannii BAA747 = type: cell-based, Acinetobacter baumannii
Procedure: as §1, §2

E. coli 25922 [2] = assay: FIC of peptide pairs (two-way dilution, 96-well plate); type: cell-based, Escherichia coli; conditions: single peptide on the FIC plate, initial screen, one value given
Procedure: Determining MIC values informed decisions on testing peptides in combination. Fractional inhibitory concentrations determine the ability of test articles to act in concert against a pathogen. FIC determination is experimentally similar to MIC determination, except one test article is diluted down the wells and another is diluted across the wells of the 96-well plate in order to test the synergism of two peptides. […] Synergy is defined as an FIC of less than or equal to 0.5, meaning there is a four-fold reduction in the concentration of each peptide required for inhibition. Any number above 4 indicates a deleterious interaction that reduces the effectiveness of each peptide, and a value between 0.5 and 1 can be considered additive (Equation (2)).
Fractional inhibitory concentrations (FICs) were determined in a manner similar to MIC determinations but with serial dilutions of two peptides running both horizontally and vertically across the 96-well plate. Determination of the FIC can be seen in Equation (2), where FIC is the fractional inhibitory concentration, [A] is the concentration of substrate A at MIC in combination, [B] is the concentration of substrate B at MIC in combination, and MICA and MICB are the MIC of substrate A and substrate B, respectively. FIC = fractional inhibitory concentration, [A] = concentration of A at MIC in combination, [B] = concentration of B at MIC in combination, MICA = minimum inhibitory concentration of A, and MICB = minimum inhibitory concentration of B. When FIC ≤ 0.5 the results are synergistic. If FIC > 4, the results are antagonistic, and when FIC > 0.5, the results are indifferent or additive. (2) FIC=[A]/MICA+ [B]/MICB

Compound | MIC (E. coli 25922 [1]; 25922) [µM] | MIC (S. aureus 43300 (MRSA); 43300) [µM] | MIC (K. pneumoniae 700603; 700603) [µM] | MIC (P. aeruginosa 27583; 27583) [µM] | MIC (E. faecium 700221 (VRE); 700221 (VRE)) [µM] | MIC (A. baumannii BAA747; BAA747) [µM] | MICA/MICB, concentration with no growth when dosed separately (E. coli 25922 [2]) | MIC (E. coli 25922 [1]; E. coli 25922, Gram (-), broth dilution in MHB, 37 °C, 16–20 h, visual inspection, dilution from 128 µM) [µM] | MIC (S. aureus 43300 (MRSA); S. aureus 43300 (MRSA), Gram (+), broth dilution in MHB, 37 °C, 16–20 h, visual inspection) [µM] | MIC (K. pneumoniae 700603; K. pneumoniae 700603, Gram (-), broth dilution in MHB, 37 °C, 16–20 h, visual inspection) [µM] | MIC (P. aeruginosa 27583; P. aeruginosa 27583, Gram (-), broth dilution in MHB, 37 °C, 16–20 h, visual inspection) [µM] | MIC (E. faecium 700221 (VRE); E. faecium 700221 (VRE), Gram (+), broth dilution in MHB, 37 °C, 16–20 h, visual inspection) [µM] | MIC (A. baumannii BAA747; A. baumannii BAA747, Gram (-), broth dilution in MHB, 37 °C, 16–20 h, visual inspection) [µM]
GILAWKWAWWAWRR-NH2 [CP10A] | 16 | 4 | 32 | 64 | 8 | 8 |  |  |  |  |  |  | 
IRRIIRKIIHIIKKYG-NH2 [OV3-00] | 2 | 8 | 4 | 16 | 4 | 4 |  |  |  |  |  |  | 
GGHYLGALLGPLMNLLQ-NH2 [PFQα-01] | >128 | 16 | >128 | >128 | >128 | 128 |  |  |  |  |  |  | 
GGHGVRRFPWWWPFLRR-NH2 [TRP-02, ATCUN derivative of tritrpticin] |  |  |  |  |  |  | 8 µM and 16 µM |  |  |  |  |  | 
GGHGIGKFLHSAKKWGKAFVGEIMNS-NH2 [Mag2-01] | 16 | >128 | 64 | 64 | 32 | 8 |  |  |  |  |  |  | 
GGHVRRFPWWWPFLRRGGC-NH2 [TRP-01] | 32 | 32 | 32 | 64 | 8 | 16 |  |  |  |  |  |  | 
GGHIRRIIRKIIHIIKKYG-NH2 [OV3-01] | 4 | 16 | 16 | 16 | 4 | 8 |  |  |  |  |  |  | 
CC(C)C[C@H](NC(=O)[C@H](Cc1ccccc1)NC(=O)[C@@H]1CCCN1C(=O)[C@H](Cc1c[nH]c2ccccc12)NC(=O)[C@H](Cc1c[nH]c2ccccc12)NC(=O)[C@H](Cc1c[nH]c2ccccc12)NC(=O)[C@@H]1CCCN1C(=O)[C@H](Cc1ccccc1)NC(=O)[C@H](CCCNC(=N)N)NC(=O)[C@H](CCCNC(=N)N)NC(=O)[C@@H](N)C(C)C)C(=O)N[C@@H](CCCNC(=N)N)C(=O)N[C@@H](CCCNC(=N)N)C(N)=O [TRP, tritrpticin] | 8 (≈ 15.2 µg/mL) | 8 (≈ 15.2 µg/mL) | 32 (≈ 60.8 µg/mL) | 16 (≈ 30.4 µg/mL) | 2 (≈ 3.8 µg/mL) | 8 (≈ 15.2 µg/mL) |  |  |  |  |  |  | 
NCC(=O)NCC(=O)N[C@@H](Cc1c[nH]cn1)C(N)=O [GGH] (H-Gly-Gly-His-NH2) | >128 | >128 | >128 | >128 | >128 | >128 |  |  |  |  |  |  | 
GGHGVRRFPWWWPFLRRGGC-NH2 [TRP-03, ATCUN derivative of tritrpticin] |  |  |  |  |  |  | 16 µM |  |  |  |  |  | 
CC[C@H](C)[C@H](NC(=O)[C@H](Cc1c[nH]cn1)NC(=O)CNC(=O)CN)C(=O)N[C@@H](CC(C)C)C(=O)N1CCC[C@H]1C(=O)N[C@@H](Cc1c[nH]c2ccccc12)C(=O)N[C@@H](CCCCN)C(=O)N[C@@H](Cc1c[nH]c2ccccc12)C(=O)N1CCC[C@H]1C(=O)N[C@@H](Cc1c[nH]c2ccccc12)C(=O)N[C@@H](Cc1c[nH]c2ccccc12)C(=O)N1CCC[C@H]1C(=O)N[C@@H](Cc1c[nH]c2ccccc12)C(=O)N[C@@H](CCCNC(=N)N)C(=O)N[C@@H](CCCNC(=N)N)C(=O)NCC(=O)NCC(=O)N[C@@H](CS)C(N)=O [IND-01] | 32 (≈ 76 µg/mL) | 64 (≈ 152 µg/mL) | >64 | >64 | 8 (≈ 19 µg/mL) | 32 (≈ 76 µg/mL) |  |  |  |  |  |  | 
FVQWFSKFLGRIL-NH2 [TempL] | 4 | 4 | 16 | 32 | 8 | 4 |  |  |  |  |  |  | 
CC[C@H](C)[C@H](NC(=O)[C@H](CC(C)C)NC(=O)[C@H](C)NC(=O)[C@@H]1CCCN1C(=O)[C@H](CC(C)C)NC(=O)CNC(=O)[C@@H](NC(=O)[C@@H](NC(=O)[C@H](CC(C)C)NC(=O)[C@@H](NC(=O)[C@H](CCCCN)NC(=O)[C@H](CCCCN)NC(=O)[C@@H](NC(=O)[C@H](C)NC(=O)[C@@H](NC(=O)[C@@H](NC(=O)[C@H](CC(C)C)NC(=O)[C@H](CCCCN)NC(=O)[C@H](CCCCN)NC(=O)[C@@H](NC(=O)[C@H](Cc1ccccc1)NC(=O)[C@H](CO)NC(=O)[C@H](CCCCN)NC(=O)[C@H](Cc1c[nH]c2ccccc12)NC(=O)[C@H](CCCCN)NC(=O)[C@H](Cc1c[nH]cn1)NC(=O)CNC(=O)CN)[C@@H](C)CC)[C@@H](C)O)[C@@H](C)O)C(C)C)C(C)C)[C@@H](C)O)[C@@H](C)O)C(=O)N[C@@H](CO)C(N)=O [CP29-01] |  |  |  |  |  |  |  | 8 (≈ 25 µg/mL) | 16 (≈ 50 µg/mL) | 8 (≈ 25 µg/mL) | 2 (≈ 6.25 µg/mL) | 4 (≈ 12.5 µg/mL) | 1 (≈ 3.12 µg/mL)
